Two compounds from PubChem BioAssay (NCI) can be followed below.

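A five-concentration, 48-hour dose response in 96-well plates underlies each endpoint, interpolated linearly between surrounding concentrations. GI50: concentration for 50% inhibition of growth. The concentration for full growth arrest is given as TGI.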 Some results are limits rather than exact numbers.

Among the test systems are ACHN renal; M14 melanoma; SK-OV-3 ovarian; SF-539 CNS; HL-60(TB) leukemia; CCRF-CEM leukemia; 786-0 renal; UACC-62 melanoma; NCI-H460 lung; SNB-75 CNS.
What all share (experiment): NCI anticancer screen, dose series, 48 h

In the case of `CS(=O)(=O)c1cccc(Nc2ncc3cc(-c4ccccc4Cl)ccc3n2)c1`, the GI50 is 1010 nM in the experiment with ACHN renal; 1150 nM in the experiment with M14 melanoma; 883 nM with SK-OV-3 ovarian; 940 nM in the experiment with SF-539 CNS; 1360 nM in the experiment with HL-60(TB) leukemia; 1470 nM in the experiment on CCRF-CEM leukemia. The GI50 in the experiment with 786-0 renal is 1380 nM; with UACC-62 melanoma, 1170 nM; with NCI-H460 lung it was 1220 nM; in the experiment on SNB-75 CNS it was 507 nM. Besides, the TGI with ACHN renal was over 33300 nM; in the experiment on M14 melanoma, over 33300 nM; in the experiment on SK-OV-3 ovarian, 2990 nM; with SF-539 CNS it was 25500 nM; with HL-60(TB) leukemia, over 33300 nM; in the experiment with CCRF-CEM leukemia, over 33300 nM. In addition, the TGI with 786-0 renal was over 33300 nM; in the experiment with UACC-62 melanoma, 5740 nM; in the experiment with NCI-H460 lung it was 25800 nM; with SNB-75 CNS, 2300 nM.

In the case of `CC1C=CC(C(N)C(=O)O)O1` (stereo not given), the TGI in the experiment on ACHN renal, in the experiment with M14 melanoma, in the experiment with SK-OV-3 ovarian, with SF-539 CNS, in the experiment with HL-60(TB) leukemia and with CCRF-CEM leukemia was over 100000 nM each time. Also, the TGI in the experiment on 786-0 renal, in the experiment with UACC-62 melanoma, with NCI-H460 lung and in the experiment on SNB-75 CNS was over 100000 nM throughout.
